ChEMBL document CHEMBL1201862, “PubChem BioAssay data set” (2004)
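48-hour exposure; five concentrations; linearly interpolated endpoints. GI50 = concentration required for 50% inhibition of growth.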 The source made the active and inactive calls. No stated cut-off is given here; in the data, active = GI50 up to about 1.1 µM and inactive = higher.

Columns and labels:
Test in all cases: NCI-60 cell line screen, 48 h
RPMI-8226 = test system: RPMI-8226
SK-MEL-5 = test system: SK-MEL-5
NCI-H226 = test system: NCI-H226
SNB-78 = test system: SNB-78
LOX IMVI = test system: LOX IMVI
A549 = test system: A549
SF-268 = test system: SF-268
UACC-257 = test system: UACC-257
HL-60 = test system: HL-60
MOLT-4 = test system: MOLT-4
M14 = test system: M14
HOP-92 = test system: HOP-92
OVCAR-8 = test system: OVCAR-8
M19-MEL = test system: M19-MEL
A498 = test system: A498
CAKI-1 = test system: CAKI-1
SK-OV-3 = test system: SK-OV-3
KM-20L2 = test system: KM-20L2
KM12 = test system: KM12
Malme-3M = test system: Malme-3M
TK-10 = test system: TK-10
SR = test system: SR
786-0 = test system: 786-0
HOP-18 = test system: HOP-18
DMS-114 = test system: DMS-114
SF-295 = test system: SF-295
SN12C = test system: SN12C
SW-620 = test system: SW-620
RXF 631 = test system: RXF 631
K562 = test system: K562
NCI-H460 = test system: NCI-H460
OVCAR-3 = test system: OVCAR-3
DMS-273 = test system: DMS-273
SF-539 = test system: SF-539
LXFL 529 = test system: LXFL 529
NCI-H522 = test system: NCI-H522
SK-MEL-2 = test system: SK-MEL-2
SK-MEL-28 = test system: SK-MEL-28
NCI-H23 = test system: NCI-H23
IGROV-1 = test system: IGROV-1
UACC-62 = test system: UACC-62
HT-29 = test system: HT-29
COLO 205 = test system: COLO 205
ACHN = test system: ACHN
EKVX = test system: EKVX
UO-31 = test system: UO-31
HCT-15 = test system: HCT-15
OVCAR-5 = test system: OVCAR-5
DLD-1 = test system: DLD-1
SNB-75 = test system: SNB-75
HOP-62 = test system: HOP-62
HCT-116 = test system: HCT-116
OVCAR-4 = test system: OVCAR-4
CCRF-CEM = test system: CCRF-CEM
U-251 = test system: U-251
RXF 393 = test system: RXF 393
HCC 2998 = test system: HCC 2998
XF498 = test system: XF498
SNB-19 = test system: SNB-19

C[N+]1=c2c3cccc4cccc(c(=O)n2CC1)c43
GI50 (RPMI-8226): 23.9 µM (inactive)
GI50 (SK-MEL-5): 18.2 µM (inactive)
GI50 (NCI-H226): 13.1 µM (inactive)
GI50 (SNB-78): 14.2 µM (inactive)
GI50 (LOX IMVI): 5.81 µM (inactive)
GI50 (A549): 22.4 µM (inactive)
GI50 (SF-268): 12.3 µM (inactive)
GI50 (UACC-257): 16.1 µM (inactive)
GI50 (HL-60): 20.9 µM (inactive)
GI50 (MOLT-4): 3.37 µM (inactive)
GI50 (M14): 14.9 µM (inactive)
GI50 (HOP-92): 24.7 µM (inactive)
GI50 (OVCAR-8): 16.6 µM (inactive)
GI50 (M19-MEL): 17.3 µM (inactive)
GI50 (A498): 15.1 µM (inactive)
GI50 (CAKI-1): 23.1 µM (inactive)
GI50 (SK-OV-3): 20.6 µM (inactive)
GI50 (KM-20L2): 15.7 µM (inactive)
GI50 (KM12): 18.3 µM (inactive)
GI50 (Malme-3M): 10.5 µM (inactive)
GI50 (TK-10): 5.82 µM (inactive)
GI50 (SR): 2.77 µM (inactive)
GI50 (786-0): 25.8 µM (inactive)
GI50 (HOP-18): 21.6 µM (inactive)
GI50 (DMS-114): 15.7 µM (inactive)
GI50 (SF-295): 21.3 µM (inactive)
GI50 (SN12C): 18.1 µM (inactive)
GI50 (SW-620): 11 µM (inactive)
GI50 (RXF 631): 24.2 µM (inactive)
GI50 (K562): 19 µM (inactive)
GI50 (NCI-H460): 11.5 µM (inactive)
GI50 (OVCAR-3): 25.7 µM (inactive)
GI50 (DMS-273): 12.4 µM (inactive)
GI50 (SF-539): 14.6 µM (inactive)
GI50 (LXFL 529): 13.9 µM (inactive)
GI50 (NCI-H522): 11.4 µM (inactive)
GI50 (SK-MEL-2): 19.6 µM (inactive)
GI50 (SK-MEL-28): 15.8 µM (inactive)
GI50 (NCI-H23): 17.6 µM (inactive)
GI50 (IGROV-1): 21.9 µM (inactive)
GI50 (UACC-62): 17.5 µM (inactive)
GI50 (HT-29): 16.8 µM (inactive)
GI50 (COLO 205): 10.1 µM (inactive)
GI50 (ACHN): 12.5 µM (inactive)
GI50 (EKVX): 29.4 µM (inactive)
GI50 (UO-31): 12.3 µM (inactive)
GI50 (HCT-15): 22 µM
GI50 (OVCAR-5): 15.5 µM (inactive)
GI50 (DLD-1): 16.1 µM (inactive)
GI50 (SNB-75): 21.8 µM (inactive)
GI50 (HOP-62): 22 µM (inactive)
GI50 (HCT-116): 4.68 µM (inactive)
GI50 (OVCAR-4): 17.6 µM (inactive)
GI50 (CCRF-CEM): 11.6 µM (inactive)
GI50 (U-251): 28.6 µM (inactive)
GI50 (RXF 393): 11.4 µM (inactive)

CC1(CO)C(=O)OC12CCCCC2 (stereo not drawn)
GI50 (RPMI-8226): > 100 µM (inactive)
GI50 (NCI-H226): > 100 µM (inactive)
GI50 (SNB-78): > 100 µM (inactive)
GI50 (HCC 2998): > 100 µM (inactive)
GI50 (LOX IMVI): > 100 µM (inactive)
GI50 (A549): > 100 µM (inactive)
GI50 (SF-268): > 100 µM (inactive)
GI50 (UACC-257): > 100 µM (inactive)
GI50 (HL-60): > 100 µM (inactive)
GI50 (MOLT-4): > 100 µM (inactive)
GI50 (M14): > 100 µM (inactive)
GI50 (HOP-92): > 100 µM (inactive)
GI50 (OVCAR-8): > 100 µM (inactive)
GI50 (M19-MEL): > 100 µM (inactive)
GI50 (A498): 44.4 µM (inactive)
GI50 (CAKI-1): > 100 µM (inactive)
GI50 (SK-OV-3): > 100 µM (inactive)
GI50 (KM12): > 100 µM (inactive)
GI50 (XF498): > 100 µM (inactive)
GI50 (Malme-3M): > 100 µM (inactive)
GI50 (TK-10): > 100 µM (inactive)
GI50 (SR): 84.9 µM (inactive)
GI50 (786-0): > 100 µM (inactive)
GI50 (SNB-19): > 100 µM (inactive)
GI50 (DMS-114): > 100 µM (inactive)
GI50 (SF-295): > 100 µM (inactive)
GI50 (SN12C): > 100 µM (inactive)
GI50 (SW-620): > 100 µM (inactive)
GI50 (RXF 631): > 100 µM (inactive)
GI50 (K562): > 100 µM (inactive)
GI50 (OVCAR-3): > 100 µM (inactive)
GI50 (DMS-273): > 100 µM (inactive)
GI50 (SF-539): > 100 µM (inactive)
GI50 (LXFL 529): > 100 µM (inactive)
GI50 (NCI-H522): > 100 µM (inactive)
GI50 (SK-MEL-2): > 100 µM (inactive)
GI50 (SK-MEL-28): > 100 µM (inactive)
GI50 (NCI-H23): > 100 µM (inactive)
GI50 (IGROV-1): > 100 µM (inactive)
GI50 (UACC-62): > 100 µM (inactive)
GI50 (HT-29): > 100 µM (inactive)
GI50 (COLO 205): > 100 µM (inactive)
GI50 (EKVX): > 100 µM (inactive)
GI50 (UO-31): 63.4 µM (inactive)
GI50 (DLD-1): > 100 µM (inactive)
GI50 (SNB-75): 84.5 µM (inactive)
GI50 (HOP-62): > 100 µM (inactive)
GI50 (HCT-116): > 100 µM (inactive)
GI50 (OVCAR-4): > 100 µM (inactive)
GI50 (CCRF-CEM): > 100 µM (inactive)

O=NN(CCCl)C(=O)NCc1ccc[n+]([O-])c1
GI50 (RPMI-8226): > 100 µM (inactive)
GI50 (SK-MEL-5): > 100 µM (inactive)
GI50 (NCI-H226): > 100 µM (inactive)
GI50 (SNB-78): > 100 µM (inactive)
GI50 (HCC 2998): > 100 µM (inactive)
GI50 (LOX IMVI): 70.6 µM (inactive)
GI50 (A549): 93.8 µM (inactive)
GI50 (SF-268): 37.2 µM (inactive)
GI50 (UACC-257): > 100 µM (inactive)
GI50 (HL-60): 76.4 µM (inactive)
GI50 (MOLT-4): 60.8 µM (inactive)
GI50 (M14): > 100 µM (inactive)
GI50 (HOP-92): 15.8 µM (inactive)
GI50 (OVCAR-8): > 100 µM (inactive)
GI50 (M19-MEL): > 100 µM (inactive)
GI50 (CAKI-1): > 100 µM (inactive)
GI50 (SK-OV-3): > 100 µM (inactive)
GI50 (KM-20L2): > 100 µM (inactive)
GI50 (KM12): > 100 µM (inactive)
GI50 (XF498): > 100 µM (inactive)
GI50 (Malme-3M): > 100 µM (inactive)
GI50 (TK-10): > 100 µM (inactive)
GI50 (SR): 33 µM (inactive)
GI50 (786-0): 35.7 µM (inactive)
GI50 (DMS-114): > 100 µM (inactive)
GI50 (SF-295): 64.1 µM (inactive)
GI50 (SN12C): > 100 µM (inactive)
GI50 (SW-620): > 100 µM (inactive)
GI50 (RXF 631): > 100 µM (inactive)
GI50 (K562): > 100 µM (inactive)
GI50 (NCI-H460): 45.7 µM (inactive)
GI50 (OVCAR-3): > 100 µM (inactive)
GI50 (SF-539): 43.9 µM (inactive)
GI50 (LXFL 529): > 100 µM (inactive)
GI50 (SK-MEL-2): > 100 µM (inactive)
GI50 (SK-MEL-28): > 100 µM (inactive)
GI50 (NCI-H23): > 100 µM (inactive)
GI50 (IGROV-1): > 100 µM (inactive)
GI50 (UACC-62): 11.7 µM (inactive)
GI50 (HT-29): > 100 µM (inactive)
GI50 (COLO 205): > 100 µM (inactive)
GI50 (ACHN): > 100 µM (inactive)
GI50 (EKVX): > 100 µM (inactive)
GI50 (HCT-15): > 100 µM
GI50 (OVCAR-5): > 100 µM (inactive)
GI50 (DLD-1): > 100 µM (inactive)
GI50 (HOP-62): 54 µM (inactive)
GI50 (HCT-116): > 100 µM (inactive)
GI50 (OVCAR-4): > 100 µM (inactive)
GI50 (CCRF-CEM): 65.8 µM (inactive)
GI50 (U-251): 43.2 µM (inactive)
GI50 (RXF 393): > 100 µM (inactive)
